Values of other authors, collected in article PMC2505184 (Bioconjugate chemistry, 2008).

- in vitro serum stability: high in vitro serum stability
Compound: O=C([O-])CN1CCCN(CC(=O)[O-])CCN(CC(=O)[O-])CCCN(CC(=O)[O-])CC1.[64Cu+2] [^64Cu-TETA]
